Seven compounds from BindingDB's records for doi:10.7270/Q2T72FW8 (Broad Institute, 2010) can be followed below.

For the assay, the target named is T1, S-ribosylhomocysteine lyase (Vibrio harveyi, UniProt B0LUE4).
T1 sequence (B0LUE4 whole entry): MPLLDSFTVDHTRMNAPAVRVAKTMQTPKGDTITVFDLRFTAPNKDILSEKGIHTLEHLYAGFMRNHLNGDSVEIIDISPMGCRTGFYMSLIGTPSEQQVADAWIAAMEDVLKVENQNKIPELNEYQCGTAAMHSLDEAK
Description: Vibrio harveyi growth inhibition, confirmation, counter-screen for AI-2 quorum sensing modulator project, absorbance, dose retest (AID 2725). (Counterscreens check selectivity or assay interference.)

Turning to `C=Cn1c(C(=O)O)ccc1-c1ccc(CC)cc1`, the EC50 is greater than 160 µM.
Then `COc1cc(NC(=O)CN2C(=O)NC(c3ccccc3)(c3ccccc3)C2=O)cc(OC)c1` [MLS001176525], with 13.7 µM; and `CCc1ccc(S(=O)(=O)Nc2ccc(Br)cn2)cc1` [MLS001211346], with greater than 160 µM; and `CCCc1ccc(S(=O)(=O)N(C)S(=O)(=O)c2ccc(F)cc2)cc1` [N-(4-fluorophenyl)sulfonyl-N-methyl-4-propylbenzenesulfonamide], with 4.55 µM.
In turn, `CN(C)S(=O)(=O)c1ccc(NC(=S)NC(=O)Cc2ccccc2)cc1` [N-[[4-(dimethylsulfamoyl)phenyl]carbamothioyl]-2-phenyl-ethanamide] yielded an EC50 greater than 160 µM.
Then `Cc1cccc(NS(=O)(=O)c2ccc(Oc3ccccc3)cc2)n1` [SMR000071466], with greater than 160 µM.
Take `Cn1cnc(S(=O)(=O)Nc2ccc(OC(F)(F)F)cc2)c1` [SMR000314513]: the EC50 was greater than 160 µM.

For orientation: EC50 means the concentration that produces a half-maximal response. Low values mean higher potency in that assay, high ones lower potency in that assay.
